In the NIST ThermoML archive (doi:10.1016/j.fluid.2009.03.017) one finds mass density and refractive index data, which are given here for two compounds.

SMILES strings stand for the structures. Numbers after ± are expanded uncertainties.

For data set [1] the following is noted: 298.1 K; 101.33 kPa; Liquid; Vibrating tube method.
A short description of data set [2]: refractive index (Na D-line) (dimensionless). As to conditions: 293.1 K; 101.33 kPa; Liquid; Standard Abbe refractometry.

The mass density is mass per unit of volume. By refractive index is commonly meant the speed of light in vacuum divided by its phase velocity in the sample. For `C=CC(C)CCC=C(C)C` (centres undefined) [3,7-dimethyl-1,6-octadiene], the mass density in data set [1] worked out at 766.8 ± 0.2 kg/m3. The refractive index in data set [2] was 1.4416 ± 0.0007.

As to `C1COCCO1` [1,4-dioxane], the mass density in data set [1] stood at 1025.9 ± 0.1 kg/m3. For the same compound, the refractive index in data set [2] is 1.422 ± 0.0007.
